Measurements as given in patent publication US20250099420A1, “SMALL MOLECULE MODULATORS OF GPR139 COMPLEX” (University of Florida Research Foundation, Incorporated, priority 2022, published 2025).
Where two headings read alike, the source gives them in different places.

Tests used:
parental HEK cells = assay: HEK parental Agonist Counterscreen Assay (non-transfected cells); type: cell-based; conditions: for Averaged Max % Response (±St. Dev.): activity relative to known control
Text: The high control for the agonist counterscreen was Forskolin not acetylcholine.

GPR139 = target: T1, GPR139 (Homo sapiens, UniProt Q6DWJ6); assay: GPR139 Agonist titration / agonist counterscreen assay (calcium detection, HEK-GPR139 cells); type: cell-based; design: expressed in transfected cells; host or cells: HEK Aequorin cells, Maxcyte transient transfection; conditions: GPR139 Agonist Activity; for EC50: read-out: EC50; for Averaged Max % Response (±St. Dev.): activity relative to known control
T1 sequence (Q6DWJ6 1-353): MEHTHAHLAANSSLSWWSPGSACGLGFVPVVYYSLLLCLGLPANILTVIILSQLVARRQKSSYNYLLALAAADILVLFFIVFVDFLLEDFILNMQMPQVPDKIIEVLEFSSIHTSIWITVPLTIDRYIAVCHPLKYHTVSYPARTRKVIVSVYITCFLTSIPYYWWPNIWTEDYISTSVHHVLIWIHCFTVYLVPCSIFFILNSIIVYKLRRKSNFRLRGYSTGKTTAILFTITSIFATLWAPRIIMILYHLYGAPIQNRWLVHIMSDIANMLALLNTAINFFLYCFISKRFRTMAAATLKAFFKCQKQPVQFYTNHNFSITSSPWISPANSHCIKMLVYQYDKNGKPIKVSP
Experimental: GPR activity was assessed using a calcium detection assay. […] Negative control samples were treated with DMSO. […] Intracellular calcium was measured using Calcium 5.

[1] = Homo sapiens, HEK293, HEK Agonist Activity section of Table 4 (parental HEK counterscreen)
[2] = HEK Agonist Activity section of Table 4 (parental HEK counterscreen)
[3] = values printed in E-notation without unit
[4] = Homo sapiens, HEK293, HEK Agonist Activity, parental non-transfected HEK cells

Row | Compound | Lipophilic Efficiency (logD) (parental HEK cells; HEK Agonist Activity section) | Lipophilic Efficiency (logP) (parental HEK cells; HEK Agonist Activity section) | Averaged Max % Response (±St. Dev.) (parental HEK cells; HEK Agonist Activity section) | EC50 (parental HEK cells; [1]) | Efficiency Ligand (GPR139) | Hill Slope (GPR139) | Lipophilic Efficiency (logD) (GPR139) | Lipophilic Efficiency (logP) (GPR139) | EC50 (GPR139; HEK-GPR139 cells) | Averaged Max % Response (±St. Dev.) (GPR139) | EC50 (parental HEK cells; [2]) | Lipophilic Efficiency (logD) (GPR139; based on logD) | Lipophilic Efficiency (logP) (GPR139; based on logP) | Hill Slope (GPR139; fitted dose-response curve) | Efficiency Ligand (GPR139; ligand efficiency) | EC50 (GPR139; [3]) | Lipophilic Efficiency (logD) (parental HEK cells; HEK Agonist Activity) | Lipophilic Efficiency (logP) (parental HEK cells; HEK Agonist Activity) | Averaged Max % Response (±St. Dev.) (parental HEK cells; HEK Agonist Activity) | EC50 (parental HEK cells; [4])
1 | CCN1CCCc2cc(CCNC(=O)Nc3ccccc3)ccc21 [SR-01000923250] | 0.79 | 0.79 | −2.96 ± 8.90% | > 14100 nM | 0.35 | 0.64 | 1.87 | 1.86 | 1200 nM | 67.60 ± 3.63% | – | – | – | – | – | – | – | – | – | –
2 | CCCC(=O)C1CCC(C(=O)CC2CCC(c3ccc(C(C)O)cc3)C2=O)CC1 (stereo not drawn) [SR-01000924775] | 3.42 | 3.42 | 10.92 ± 3.68% | > 14100 nM | 0.31 | 0.79 | 4.98 | 4.98 | 387 nM | 69.93 ± 11.99% | – | – | – | – | – | – | – | – | – | –
3 | Cc1onc(-c2ccccc2Cl)c1C(=O)N1CCC(Cn2ccnc2C)CC1 [SR-01000925002] | 2.12 | 1.88 | 17.46 ± 3.54% | – | 0.31 | 0.51 | 3.41 | 3.17 | 727 nM | 86.62 ± 3.28% | > 14100 nM | – | – | – | – | – | – | – | – | –
4 | O=C(Cn1ccc2ccccc21)NC1CCN(Cc2ccccc2)CC1 [SR-01000925700] | 2.90 | 1.91 | 10.33 ± 2.07% | > 14100 nM | 0.32 | 0.44 | 4.08 | 3.09 | 931 nM | 83.76 ± 7.63% | – | – | – | – | – | – | – | – | – | –
5 | O=C(Cn1cnc2ccccc21)NCCCn1ccc2ccccc21 [SR-01000926263] | 2.29 | 2.29 | 12.91 ± 4.81% | > 14100 nM | – | – | – | – | – | 84.49 ± 4.10% | – | 4.34 | 4.34 | 1.10 | 0.39 | 127 nM | – | – | – | –
6 | O=C(Cn1ccc2ccccc21)NCCCC(=O)Nc1cccc2cccnc12 [SR-01000926510] | 2.07 | 2.07 | 9.24 ± 7.87% | > 14100 nM | 0.30 | 0.38 | 3.52 | 3.52 | 490 nM | 89.57 ± 9.18% | – | – | – | – | – | – | – | – | – | –
7 | O=C(Cn1ccc2ccccc21)NCCn1cnc(-c2ccccc2)cc1=O [SR-01000926956] | – | – | – | – | – | – | – | – | – | 100.27 ± 11.90% | – | 5.36 | 5.36 | 0.74 | 0.37 | 45.1 nM | 2.87 | 2.87 | −3.24 ± 9.86% | > 14100 nM
8 | CC(C)C(CC(=O)Cc1cccc2ccccc12)C(=O)Nc1cccc(C#N)c1 (stereo not drawn) [SR-05000022531] | – | – | – | – | – | – | – | – | – | 133.92 ± 16.41% | – | 3.47 | 3.47 | 0.09 | 0.37 | 19.6 nM | 0.61 | 0.61 | 1.20 ± 11.04% | > 14100 nM
9 | Cc1ccccc1CN1CCC(O)(c2ccc(Cl)c(C(F)(F)F)c2)CC1 [SR-05000022582] | 1.43 | −0.025 | 0.58 ± 18.59% | – | 0.31 | 0.53 | 2.32 | 0.87 | 1800 nM | 135.48 ± 20.60% | > 14100 nM | – | – | – | – | – | – | – | – | –
